Read-outs that look alike come from different tables or passages of the source.

The source of these data is patent publication US5192525A (Board of Regents, The University of Texas System, priority 1991, dated 1993).

Data set [1] in a line: In vivo tissue uptake of 131I-IMTX (trans) in rat. Particulars: for liver uptake / uterus uptake: n=5.
In another data set the test system is MCF7 cell line. As to the kind of experiment: Inhibition of MCF7 human breast tumor cell growth (MTT, 72 h). The following applies: for relative potencies, MCF7 inhibition: TX=100; for RP (relative potency): IC50 ratio between tamoxifen and competitor, tamoxifen 100; for IC50: Homo sapiens. It is filed as cell-based. On the procedure:
The MCF7 cell line is a human tumor cell line. This cell line was cultured in MEM (Eagles) media in a 5% CO^2 atmosphere with 10% fetal calf serum that had been washed twice with dextran coated charcoal to reduce endogenous estrogen levels. The media was supplemented with 1 mM sodium pyruvate and 100 μm non-essential amino acids. The cell line was screened routinely for myoplasma contamination using the GenProbe kit (Fisher). Cells were trypsinized and plated at a density of 5,000 cells/well in 96 well microtiter plates and allowed to attach and recover for 24 hours.
The media was removed by aspiration and replaced with filter sterilized drug (concentration from 10^-4 M to 10^-5 M) in media. The cells were incubated for 72 hours and then stained using the mTT tetrazolium dye assay of Mosmann^36 except that after the media was removed, the blue formazan product was solubilized in 50 μl/well DMSO.

The target of data set [2] is T1, estrogen receptor (Sus scrofa, UniProt Q29040).
T1 construct: uteri (90 gm) were obtained from immature domestic swine (15 kg); from tissue; host or cells: uterus cytosol (100,000 g supernatant, charcoal-treated) of immature domestic swine
T1 sequence (Q29040 1-595): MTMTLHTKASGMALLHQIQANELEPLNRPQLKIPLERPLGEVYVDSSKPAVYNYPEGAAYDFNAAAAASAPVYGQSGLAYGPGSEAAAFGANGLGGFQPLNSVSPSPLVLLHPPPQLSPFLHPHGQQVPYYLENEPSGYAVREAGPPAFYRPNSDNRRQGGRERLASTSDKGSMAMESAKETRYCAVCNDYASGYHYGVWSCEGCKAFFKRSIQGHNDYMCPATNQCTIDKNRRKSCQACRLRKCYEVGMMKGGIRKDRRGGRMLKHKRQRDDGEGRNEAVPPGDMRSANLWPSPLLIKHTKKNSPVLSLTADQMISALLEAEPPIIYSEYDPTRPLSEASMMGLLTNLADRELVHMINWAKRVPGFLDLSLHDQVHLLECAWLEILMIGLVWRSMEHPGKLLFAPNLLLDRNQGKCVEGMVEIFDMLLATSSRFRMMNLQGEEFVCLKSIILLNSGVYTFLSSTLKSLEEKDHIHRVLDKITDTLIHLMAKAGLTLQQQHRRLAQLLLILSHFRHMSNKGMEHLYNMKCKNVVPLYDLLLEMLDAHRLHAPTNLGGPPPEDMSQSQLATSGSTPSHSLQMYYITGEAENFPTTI
As to the kind of experiment: Estrogen receptor binding in pig uterus cytosol, displacement of [3H]estradiol. Particulars: for RBA: relative binding affinity: Table 6, IC50 ratio between tamoxifen and competitor (tamoxifen given as 1); for fold estrogen receptor affinity versus native tamoxifen: relative to native tamoxifen; for IC50 / Ki: pig uteri cytosol, [3H]estradiol 5 nM, 4 °C. On the procedure:
done at 4° C. […] The protein
three experiments. In each experiment, triplicate samples were tested.
^2 IC50 : Concentration required to decrease the amount of bound
^3 RBA: Relative binding affinity is the IC50 ratio between
Background: Loss of bound radioactivity is the signal in a displacement assay; it reports binding, not function.

Data set [3] deals with T2, estrogen receptor (Homo sapiens, UniProt P03372).
T2 sequence (P03372 1-595): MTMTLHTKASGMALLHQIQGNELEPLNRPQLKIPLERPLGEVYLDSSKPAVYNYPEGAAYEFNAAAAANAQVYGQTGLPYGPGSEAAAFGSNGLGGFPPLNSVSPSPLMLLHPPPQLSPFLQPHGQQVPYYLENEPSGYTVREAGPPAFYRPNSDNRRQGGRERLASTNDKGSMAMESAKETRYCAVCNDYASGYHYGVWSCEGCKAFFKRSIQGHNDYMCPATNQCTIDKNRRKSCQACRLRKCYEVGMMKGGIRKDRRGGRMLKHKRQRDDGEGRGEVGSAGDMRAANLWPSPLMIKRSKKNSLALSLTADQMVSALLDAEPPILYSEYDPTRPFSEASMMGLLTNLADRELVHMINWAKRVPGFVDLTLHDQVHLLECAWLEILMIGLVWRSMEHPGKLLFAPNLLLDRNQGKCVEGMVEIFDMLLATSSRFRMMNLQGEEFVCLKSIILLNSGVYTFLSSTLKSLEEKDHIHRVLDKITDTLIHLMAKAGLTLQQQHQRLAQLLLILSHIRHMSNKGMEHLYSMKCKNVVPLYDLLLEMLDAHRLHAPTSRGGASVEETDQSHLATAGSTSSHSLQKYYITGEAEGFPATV
Particulars: cited from earlier work; for estrogen receptor binding affinity, words: literature.

A further data set has as its system uterus. The following applies: Allen et al. 1980; cited from earlier work.
Data set [4] is described as follows: Biodistribution of N,N-diethyl-[18F]fluoromethyltamoxifen in rats. It is filed as in vivo, rat (female Sprague-Dawley). As to the method:
Four groups of rats (150-200 gm, N=4/group) were anesthetized with ketamine (10-15 mg/rat). […]. Tissue uptake of ^18 F-tracer was determined at 2 and 4 hours (h). To ascertain whether the ^18 F-tracer uptake was mediated by a receptor-process, one group of rats was given ^18 F-tracer without priming with estradiol; and another group of rats was given unlabeled estradiol (30 μg/rat) together with ^18 F-tracer. […]
*Without prime with estradiol (control); rats weighted about 175 gm.

[5] abbreviates: Table 7, MCF7, 72 h, average of three experiments, read-out: IC50 Dose.
Where [6] appears, read: 2h (BLOCK), coinjected estradiol 30 μg.

In the case of `CCN(CC)CCOc1ccc(/C(=C(/CCC[131I])c2ccccc2)c2ccccc2)cc1` [^131 I-IMTX (trans), N,N-diethyl [^131 I]iodomethyltamoxifen], in data set [1] (3h), the Uterus/blood ratio is 1.6, the uterus/muscle ratio is 11.0, the liver uptake is listed as 5.3±0.84 % injected dose per organ and the uterus uptake is on record as 0.5±0.04 % injected dose per organ. Further, in data set [1] (6h), the Uterus/blood ratio was found to be 1.5, the uterus/muscle ratio worked out at 7.6, the liver uptake amounted to 3.0±0.02 % injected dose per organ and the uterus uptake worked out at 0.14±0.16 % injected dose per organ. Further, in data set [1] (24h), the Uterus/blood ratio is on record as 1.2, the uterus/muscle ratio is given as 3.6, the liver uptake turned out to be 1.7±0.21 % injected dose per organ and the uterus uptake was 0.01±0.001 % injected dose per organ.

On to `CCN(CC)CCOc1ccc(/C(=C(\CCCI)c2ccccc2)c2ccccc2)cc1` [X (cis), N,N-diethyl-iodomethyltamoxifen], for which the “MCF7 tumor cell inhibition, result in words” value (from here on “MCF7 tumor cell inhibition”) in the data set on MCF7 cell line is listed as “effective for inhibiting a breast tumor cell line”. In addition, the “MCF7 tumor cell inhibition” value with MCF7 cell line (listed as cis N,N-diethyl-iodomethyl) is “more potent than the trans isomers”. Further, at estrogen receptor [2], the “RBA: relative binding affinity” value is 10 and the “fold estrogen receptor affinity versus native tamoxifen” value stood at 10 fold.

Consider `CC/C(=C(\c1ccc(Cl)cc1)c1ccc(OCCN(C)C)cc1)c1ccccc1` [Compound 4-chloro], for which, at estrogen receptor [3], the “estrogen receptor binding affinity, words” value is given as “approximately equal activity for estrogen receptor binding affinity compared to tamoxifen in vitro”. In the data set on uterus, the “anti-estrogenic activity, uterine weight tests” value is listed as “lower anti-estrogenic activity than tamoxifen”.

Turning to `CCN(CC)CCOc1ccc(/C(=C(\CCCBr)c2ccccc2)c2ccccc2)cc1` [Compound XI (cis)], the “relative potencies, MCF7 inhibition” value with MCF7 cell line is 2355. In addition, the “RP (relative potency)” value with MCF7 cell line (Table 7) is 2355. In addition, on estrogen receptor [2], the “RBA: relative binding affinity” value stood at 37.5 and the “fold estrogen receptor affinity versus native tamoxifen” value came out at 38 fold.

Turning to `CCN(CC)CCOc1ccc(/C(=C(/CCF)c2ccccc2)c2ccccc2)cc1` (single isomer, unassigned) [Compound IV (trans), N,N-diethyl-fluorotamoxifen], the IC50 (as a rule, the midpoint of a concentration-inhibition curve) in the data set with MCF7 cell line (setting [5]) worked out at 13.4 µM. Besides, on estrogen receptor [2], the RBA was determined as 250; the “estrogen receptor binding, result in words” value is on record as “higher binding affinity than the cis isomer”; the “fold estrogen receptor affinity versus native tamoxifen” value is “two and a half times that of tamoxifen”. Besides, on estrogen receptor [2] (Table 5), the IC50 was determined as 12 µM and the inhibitory constant (Ki) (commonly a measure of affinity in units of concentration, obtained from inhibition or displacement) is 6 µM.

In the case of `CCN(CC)CCOc1ccc(/C(=C(\CCF)c2ccccc2)c2ccccc2)cc1` (single isomer, unassigned) [IV (cis), N,N-diethyl-fluorotamoxifen], the “MCF7 tumor cell inhibition” value with MCF7 cell line is given as “effective for inhibiting a breast tumor cell line”; in the data set on MCF7 cell line (listed as cis N,N-diethyl-fluoro) it was “more potent than the trans isomers”. The IC50 in the data set with MCF7 cell line (setting [5]) was 4.1 µM; on estrogen receptor [2] (Table 5) it was 30 µM. The inhibitory constant (Ki) on estrogen receptor [2] (Table 5) stood at 15 µM. This molecule also gave an RBA at estrogen receptor [2] (Table 5, tamoxifen is 100 as the standard) of 100.

`CCN(CC)CCOc1ccc(/C(=C(\CCCO)c2ccccc2)c2ccccc2)cc1` [Compound III (cis), N,N-diethyl-hydroxymethyltamoxifen]: the “relative potencies, MCF7 inhibition” value in the data set on MCF7 cell line was found to be 66. Further, the “RP (relative potency)” value with MCF7 cell line (Table 7) came out at 66.

As for `CCN(CC)CCOc1ccc(C(=C(CCC[18F])c2ccccc2)c2ccccc2)cc1` [N,N-DIETHYL-[^18 F]FLUOROMETHYLTAMOXIFEN, N,N-Diethyl-[^18 F]Fluoromethyltamoxifen], in data set [4] (setting [6]), the MUSCLE uptake is listed as 0.145 ± 0.0446 % OF INJECTED DOSE/GRAM and the liver uptake turned out to be 4.451 ± 1.1559 % OF INJECTED DOSE/GRAM. For the same molecule, the BONE uptake in data set [4] (2h*, without prime with estradiol) was determined as 0.644 ± 0.0656 % OF INJECTED DOSE/GRAM. This molecule had a KIDNEY uptake in data set [4] (4h, estradiol primed) of 0.796 ± 0.0300 % OF INJECTED DOSE/GRAM. Also, the “uterus uptake, result in words” value in data set [4] (estradiol-primed rats, coinjection of estradiol) was “increased uptake was blocked by coinjection of estradiol”.

On to `CC/C(=C(\c1ccc(F)cc1)c1ccc(OCCN(C)C)cc1)c1ccccc1` [Compound 4-fluoro], for which the “estrogen receptor binding affinity, words” value on estrogen receptor [3] was “approximately equal activity for estrogen receptor binding affinity compared to tamoxifen in vitro”. The “anti-estrogenic activity, uterine weight tests” value in the data set on uterus is “lower anti-estrogenic activity than tamoxifen”.

For `CCN(CC)CCOc1ccc(/C(=C(/CCCBr)c2ccccc2)c2ccccc2)cc1` [Compound XI (trans)], the “relative potencies, MCF7 inhibition” value in the data set on MCF7 cell line was 298. For the same molecule, in the data set on MCF7 cell line (Table 7), the “RP (relative potency)” value was determined as 298. Besides, on estrogen receptor [2], the “RBA: relative binding affinity” value was found to be 150 and the “fold estrogen receptor affinity versus native tamoxifen” value is reported as 50 fold.

Consider `CC/C(=C(/c1ccccc1)c1ccc(OCCN2CC2)cc1)c1ccccc1` [cis isomer of tamoxifen azizidine, tamoxifen azizidine], for which the “affinity loss of cis versus trans isomer” value at estrogen receptor [3] (Salituro et al., 50-fold less affinity than the trans isomer) is 50 fold.

For `CCN(CC)CCOc1ccc(/C(=C(\CCCCl)c2ccccc2)c2ccccc2)cc1` [Compound XII (cis), 1[4-(2-Diethylaminoethoxy)phenyl]-1,2-diphenyl-5-chloro-1-pentene (N,N-Diethylchloromethyltamoxifen)], the half-maximal inhibitory concentration (IC50) in the data set on MCF7 cell line (setting [5]) came out at 4.36 µM.

With `CCN(CC)CCOc1ccc(/C(=C(/CCCI)c2ccccc2)c2ccccc2)cc1` [X (trans)], in the data set with MCF7 cell line, the “MCF7 tumor cell inhibition” value is reported as “effective for inhibiting a breast tumor cell line”. The “fold estrogen receptor affinity versus native tamoxifen” value at estrogen receptor [2] stood at 15 fold.

`CCN(CC)CCOc1ccc(/C(=C(/CCCF)c2ccccc2)c2ccccc2)cc1` [Compound VI (trans)]: the “MCF7 tumor cell inhibition” value in the data set with MCF7 cell line was “effective for inhibiting a breast tumor cell line”. Moreover, in the data set on MCF7 cell line (MCF7, read-out: IC50, MCF7 cell inhibition), the half-maximal inhibitory concentration (IC50) amounted to 1.8 µM.

Take `CCN(CC)CCOc1ccc(/C(=C(\CCCF)c2ccccc2)c2ccccc2)cc1` [Compound VI (cis), N,N-diethyl-fluoromethyltamoxifen]: the results for the “MCF7 tumor cell inhibition” value with MCF7 cell line and in the data set on MCF7 cell line (listed as cis N,N-diethyl-fluoromethyl) were “effective for inhibiting a breast tumor cell line” and “more potent than the trans isomers”, respectively.

Consider `CN(C)CCOc1ccc(/C(=C(\CCF)c2ccccc2)c2ccccc2)cc1` [Compound VII (cis), Fluorotamoxifen], for which the IC50 in the data set on MCF7 cell line (setting [5]) stood at 4.5 µM.

`CN(C)CCOc1ccc(/C(=C(/CCF)c2ccccc2)c2ccccc2)cc1` [VII (trans), Trans-Fluorotamoxifen]: the IC50 in the data set on MCF7 cell line (setting [5]) amounted to 11.8 µM.

As for `CCN(CC)CCOc1ccc(/C(=C(/CCCO)c2ccccc2)c2ccccc2)cc1` [III (trans), N,N-diethyl-hydroxymethyltamoxifen], the “relative potencies, MCF7 inhibition” value in the data set on MCF7 cell line was determined as 50. The “RP (relative potency)” value with MCF7 cell line (Table 7) was 50. The “RBA: relative binding affinity” value at estrogen receptor [2] is 4.
